# Experimental data: patent US10201158B2, “Plant disease control composition and method for controlling plant disease by application of same” (MITSUI CHEMICALS AGRO, INC., priority 2014, dated 2019)
# Read-outs that look alike come from different tables or passages of the source.
# Experiments:
# [1] = system: Phytophthora infestans; type: in vivo; settings: 5 days after inoculation
# [2] = system: Pseudoperonospora cubensis; experiment: Cucumber downy mildew preventive test; type: in vivo; settings: Table 8, 7 days after inoculation
# Procedure: In a greenhouse, cucumber (variety: Sagamihanshiro) planted in a plastic pot having a diameter of 5 cm was grown to the 3rd to 5th-leaf stage. Spray was carried out in the same manner as in Test example 1, and after drying the chemical liquid, the pots were transferred into a greenhouse. After 3 days from the spray, a zoosporangium suspension of Pseudoperonospora cubensis was inoculated. After inoculation, the pots were placed in a high-humidity chamber (20 to 25° C.), transferred into a greenhouse on the next day, and controlling effects were examined after 7 days from the inoculation. A ratio of lesion area occupied per one leaf of cucumber was determined according to the same index as in Test example 1, and the control value and the theoretical value according to Colby's formula were similarly calculated.
# [3] = system: Pyricularia oryzae; type: in vivo; settings: for Control value: Table 3-1
# [4] = system: Blumeria graminis; experiment: Barley powdery mildew preventive test; type: in vivo; settings: Table 4; treatment concentration 10 ppm; 8 days after inoculation
# Procedure: Barley plants (variety: Akashinriki) planted in plastic pots having a diameter of 5 cm were grown indoors to the second to fourth leaf stage. Wettable powder containing the compounds indicated in Table 4 were sprayed in the same manner as in Test Example 1, and after the chemical had dried, conidia of Blumeria graminis was inoculated onto the leaves. Following inoculation, the pots were transferred to a constant-temperature chamber (20° C. to 25° C.), and control effects were examined 8 days after inoculation.
# [5] = system: Puccinia recondita; experiment: Wheat brown rust preventive test; type: in vivo; settings: Table 5, 8 days after inoculation
# Procedure: Wheat plants (variety: Norin 61 gou) planted in plastic pots having a diameter of 5 cm were grown indoors to the second to fourth leaf stage. Wettable powder containing the compounds indicated in Table 5 were sprayed in the same manner as in Test Example 1, and after the chemical had dried, a conidia suspension of Puccinia recondita was inoculated onto the leaves. Following inoculation, the pots were placed in the humidified chamber of an artificial inoculation room (20° C. to 23° C.), removed on the following day and then transferred to a greenhouse. Control effects were examined 8 days after inoculation. During the examination, the number of lesions on five leaves of the wheat plants was determined in accordance with the following incidence degree indicators, and control values and theoretical values as determined according to Colby's formula were calculated in the same manner as in Test Example 1.
# [6] = system: Sphaerotheca fuliginea; experiment: Cucumber powdery mildew preventive test; type: in vivo; settings: in vivo
# Procedure: In a greenhouse, cucumber (variety: Sagamihanshiro) planted in a plastic pot having a diameter of 5 cm was grown to the 3rd to 5th-leaf stage. Spray was carried out in the same manner as in Test example 1, and 3 days after the spray, a conidia suspension prepared from Sphaerotheca fuliginea were inoculated on the leaf surface. After inoculation, the pots were placed in a thermostatic greenhouse (20 to 25° C.), and controlling effects were examined after 7 days from the inoculation. In the examination, a ratio of lesion area occupied per one leaf of cucumber was determined according to the same index as in Test example 1, and the control value and the theoretical value according to Colby's formula were similarly calculated.
# Wettable powder prepared in compliance with Comparative Preparation Example 4 containing the compounds indicated in Table 7-9 were sprayed to the cucumber leaves, a conidiospore suspension prepared from Sphaerotheca fuliginea was inoculated onto the plants, and the controlling effects were examined in a manner similar to Test Example 6.
# [7] = system: Botrytis cinerea; settings: in vivo
# [8] = Table 3-3, treatment concentration 50 ppm
# [9] = treatment concentration 0.4 ppm
# [10] = Table 3-3, treatment concentration 10 ppm
smiles,measurement,setting,value
"Cc1ccc(C(C)NC(=O)[C@@H](NC(=O)OC(C)C)C(C)C)cc1 (some centres unmarked) [Iprovalicarb (b-50), Iprovalicarb]",Preventive value,"[1]; Table 6-2, treatment concentration 2 ppm",50
Cc1ccc(C(C)NC(=O)[C@@H](NC(=O)OC(C)C)C(C)C)cc1 (some centres unmarked) [Iproyalicarb (b-50)],Preventive value,[2]; treatment concentration 2 ppm,50
"Cc1cc(OC(C)C)ccc1C(=O)C(C)(C)NC(=O)c1sccc1C [Isofetamid (b-47), Isofetamid]",Control value,[3]; treatment concentration 10 ppm,17
same,Control value,[4],67
same,Control value,[5]; treatment concentration 10 ppm,3
"CC(C)OC(=O)C(C(=O)OC(C)C)=C1SCCS1 [Isoprothiolane (b-71), Isoprothiolane]",Preventive value,[3]; [8],50
same,Preventive value,[6],40
"C#CCOc1ccc(CCNC(=O)C(OCC#C)c2ccc(Cl)cc2)cc1OC (centres unmarked) [Mandipropamid (b-44), Mandipropamid]",Preventive value,"[1]; Table 6-2, treatment concentration 0.08 ppm",67
same,Preventive value,[2]; treatment concentration 0.08 ppm,67
"CNC(=O)/C(=N/OC)c1ccccc1CO/N=C(C)/C(=N/OC)C(/C)=N/OC [Orysastrobin (b-53), Orysastrobin]",Preventive value,[7],47
same,Preventive value,"[3]; Table 3-2, treatment concentration 10 ppm",60
same,Control value,[6],40
"Cc1cc(C(F)(F)F)nn1CC(=O)N1CCC(c2nc(C3=NOC(c4c(F)cccc4F)C3)cs2)CC1 (centres unmarked) [Oxathiapiprolin (b-84), Oxathiapiprolin]",Preventive value,[7],33
same,Preventive value,"[1]; Table 6-3, treatment concentration 0.0016 ppm",67
same,Preventive value,[6],17
CCn1cc(C(=O)O)c(=O)c2cc3c(cc21)OCO3 [Oxolinic acid],Preventive value,[7],17
same,Preventive value,"[3]; Table 3-5 (Comparative Example 2), treatment concentration 50 ppm",33
same,Preventive value,[6],33
"O=C(Nc1ccccc1)N(Cc1ccc(Cl)cc1)C1CCCC1 [Pencycuron (b-76), Pencycuron]",Preventive value,"[3]; Table 3-3, treatment concentration 250 ppm",40
same,Preventive value,[6],33
"Cn1nnnc1/C(=N\OCc1cccc(NC(=O)OC(C)(C)C)n1)c1ccccc1 [Picarbutrazox (b-78), Picarbutrazox]",Control value,[7],0
same,Control value,[3]; [9],17
same,Control value,[5]; [9],3
same,Control value,"[1]; Table 6-1, treatment concentration 0.4 ppm",75
"C=CCOC1=NS(=O)(=O)c2ccccc21 [Probenazole (b-73), Probenazole]",Preventive value,[3]; [10],60
same,Preventive value,[6],40
"O=C(Nc1ccccc1-c1ccc(F)c(F)c1)c1nccnc1C(F)(F)F [Pyraziflumid (b-49), Pyraziflumid]",Preventive value,[7],40
same,Control value,[3]; treatment concentration 2 ppm,17
same,Control value,[5]; treatment concentration 2 ppm,85
"O=C1CCc2cccc3c2N1CC3 [Pyroquilon (b-104), Pyroquilon]",Preventive value,[3]; [8],67
same,Preventive value,[6],7
"CC(=O)Oc1c(C)c(C)nc2c(F)cc(C(C)(C)C)cc12 [Tebufloquin (b-64), Tebufloquin]",Preventive value,[3]; [10],73
same,Preventive value,[6],67
"Cc1ccc(NC(=O)c2snnc2C)cc1Cl [Tiadinil (b-45), Tiadinil]",Preventive value,[3]; [10],60
same,Preventive value,[6],40
COP(=S)(OC)Oc1c(Cl)cc(C)cc1Cl [Tolclofos-methyl],Preventive value,[3]; in vivo,33
same,Preventive value,[6],33
"CON=C(C(=O)OC)c1ccccc1CON=C(C)c1cccc(C(F)(F)F)c1 [Trifloxystrobin (b-55), Trifloxystrobin]",Preventive value,[7],33
same,Preventive value,"[3]; Table 3-4, group b ingredient alone, treatment concentration 10 + 2 ppm",57
"CCC(C)(NC(=O)c1cc(Cl)c(C)c(Cl)c1)C(=O)CCl (centres unmarked) [Zoxamide (b-39), Zoxamide]",Preventive value,"[1]; Table 6-2, treatment concentration 0.4 ppm",40
same,Preventive value,[2]; [9],33
